Measurements published in patent US20260345561A1, “METHODS AND COMPOSITIONS FOR USE IN TREATING AUTOSOMAL RECESSIVE POLYCYSTIC KIDNEY DISEASE (ARPKD)” (The General Hospital Corporation, priority 2022, published 2026).
Entries after “also recorded” stand apart in the source; their conditions may differ. Where two headings read alike, the source gives them in different places.

Experiments:
[1] = tested on: PKHD1−/− organoids; assay: CDH1+ distal tubular enlargement / cyst formation by 3D imaging of cleared whole organoids-on-a-chip; assay type: cell-based, human; conditions: for cyst suppression: Z-DEVD-FMK 1 μM, Quercetagetin 10 μM, rhCXCL16 1 ng/ml (FIG. 3D, E)
Description: (§1) H9 (WiCell) human ES cells, H9-derived PKHD1 mutants, and ARPKD patient-derived iPSCs (68) were maintained on hESC-qualified Geltrex (Thermo Fisher Scientific) coated plates using StemFit® Basic02 (Ajinomoto Co., Inc.) supplemented with 10 ng/ml of FGF2 (Peprotech), as previously reported (69).
Heterozygotic (PKHD1+/−) and compound homozygotic (PKHD1−/−) mutant lines were generated using methodology previously outlined (70), which generated clones of isogenic progeny via clonal expansion from single cells. PX459 plasmid encoding a Streptococcus pyogenes Cas9 and guide RNA (sgRNA) targeting the third exon of PKHD1 (5′-[…]-3′; SEQ ID NO:1) was transfected into H9 hESCs to generate the heterozygotic mutant line, which then served as the parental line to generate the compound homozygotic mutant. Transfected cells were selected by transient puromycin treatment. CRISPR/Cas9-induced mutations of individual clones were identified by deep sequencing.
The organoids were seeded onto the chip devices on day 14 of their differentiation and cultured on chip by flowing cell culture medium composed of ARMPI with GlutaMAX, 1% Antibiotic/Antimycotic solution (Gibco), and 1.5% heat-inactivated fetal bovine serum (Gibco). All cell culture medium was pre-equilibrated to the cell culture incubator environment for at least 2 hr before chip assembly and seeding. The kidney organoids-on-a-chip was then held in a cell culture incubator for 30 min under static conditions, before connecting the inlet perfusion tubing to an IPC-N peristaltic pump (Ismatech) and perfusing the cell culture media at 42.7 μl/min overnight in the incubator. The following day (day 15 of organoid differentiation), the sterile filter was removed from the perfusion line to avoid bubble formation at high perfusion speeds, and the perfusion speed was ramped up to 4.27 mL/min. Cell culture medium was changed in the reservoir every 2-3 days.
Full media exchanges were conducted every 2-3 days. Treatment of the kidney organoids-on-a-chip was started at day 16 of their differentiation until day 35.
The chip device was taken out of the incubator for fixation, and the lid was carefully removed in a sterile biosafety cabinet. The kidney organoids adherent on the surface of the ECM were rinsed with PBS, carefully overlayed with 4% PFA, and fixed for 45 min at RT. Post fixation, the samples were washed three times with 0.1% Triton-X (Sigma) for 30 min. Organoids were stained and cleared with ethyl cinnamate (Sigma), as described before (78). The following antibodies were used in these studies: anti-CDH1 (Abcam, ab11512), anti-CFTR (Sigma, HPA021939), anti-LTL (Vector lab, B-1325), anti-PODXL (R&D systems, AF1658), anti-K167 (Dako, m7248), Anti-pS6RP (Cell signaling, 2211S), anti-RAC1 (Developmental Studies Hybridoma Bank, CPTC-RAC1-2), anti-FOS (Abcam, ab190289). Samples were examined by a Zeiss TIRF/LSM 710 confocal microscopy or a Leica […] 8 confocal microscopy, and by using Imaris 3D software (Bitplane).
(§2) Data in all bar charts and dot plots are expressed as mean±s.d. Statistical analysis was done in GraphPad Prism 9, and statistical significance was attributed to values of P<0.05 as determined by one-way ANOVA with Tukey's multiple-comparisons test unless otherwise noted. Different significance levels (P values) are indicated in each figure with asterisks: *P<0.05, **P<0.01, ***P<0.001, and ****P<0.0001. […] FIG. 1F; n=74 LTL+ tubules with flow, n=66 LTL+ tubules in static culture, n=191 LTL+ tubules treated with forskolin, n=32 CDH1+ tubules with flow, n=27 CDH1+ tubules in static culture, and n=104 CDH1+ tubules treated with forskolin. FIG. 2C; n=16 tubules transfected with siControl, n=17 tubules transfected with siKIF3A.

[2] = tested on: ARPKD patient-derived organoids; conditions: prior ARPKD organoid model from patient-derived iPS cells, static culture (ref. 17); cited from earlier work
[3] = tested on: RAC1; conditions: cited from earlier work
[4] = cited from earlier work
[5] = tested on: ARPKD patient-derived organoids; assay: Cyst formation on cAMP induction in static patient-derived organoids; assay type: cell-based, human
Description: as §1
Kidney organoids were cultured in static condition and treated with 20 μM of forskolin (Sigma, #F6886), a cAMP inducer, from day 14 to day 35.
(§3) FIG. 2J; n=4 (perfusion), n=4 (rest). FIG. 2K; n=3. […] 3 independent experiments were performed for FIG. 3E. […] FIG. 4H; n=4 (control), n=4 (ARPKD). FIG. 4I; n=4 (control), n=4 (ARPKD).

[6] = tested on: PKHD1−/− organoids; assay: Cyst formation / tubular diameter on forskolin treatment in static culture; assay type: cell-based, human
Text: as §2, with “siKIF3A. 8 organoids transfected with siControl, and 7 organoids transfected with siKIF3A from 2 independent chips were analyzed in FIG. 2C.” for “siKIF3A.”

[7] = tested on: FOS; conditions: cited from earlier work
[8] = tested on: PRDM1; assay: qPCR for PRDM1 (FOS downstream gene); assay type: cell-based, human; conditions: PKHD1−/− and ARPKD patient-derived organoids, flow, T-5224 10 μM, day 16 to 23
Description: as §3

[9] = tested on: PRDM1; assay: Quantitative immunohistochemistry for PRDM1; assay type: cell-based, human; conditions: PKHD1−/− organoids, T-5224 10 μM, day 23 (FIG. 5F)
Description: as §3

[10] = tested on: NPTX2; assay: qPCR for NPTX2 (FOS downstream gene); assay type: cell-based, human; conditions: PKHD1−/− and ARPKD patient-derived organoids, flow, T-5224 10 μM, day 16 to 23
Description: as §3

[11] = tested on: DUSP1; assay: qPCR for DUSP1 (FOS downstream gene); assay type: cell-based, human; conditions: PKHD1−/− and ARPKD patient-derived organoids, flow, T-5224 10 μM, day 16 to 23
Description: as §3

[12] = clinical trials for arthritis / humans (ref. 45); cited from earlier work
[13] = tested on: ARFIP2; conditions: PKHD1−/− organoids, R-Naproxen 20 μM, day 23 (FIG. 5F)
Text: as §2, with “siKIF3A. 8 organoids transfected with siControl, and 7 organoids transfected with siKIF3A from 2 independent chips were analyzed in FIG. 2C.” for “siKIF3A.”

[14] = tested on: BAIAP2; conditions: flow, R-Naproxen 20 μM
Description: (§4) Total RNA was isolated from kidney organoid samples using TRIzol (Invitrogen, #15596026). cDNA was synthesized from 500 ng of RNA using a High-capacity cDNA Reverse Transcription kit (Applied Biosystems, #4368814) according to the manufacturer's instructions. Real-time PCR was performed using iTaq SYBR green supermix (Bio-Rad, #1725124) and QuantStudio3 Real-time PCR systems. The expression of mRNA was assessed by evaluating threshold cycle (CT) values. The CT values and relative expression levels were normalized by ribosomal protein S18 (RPS18), and the relative amount of mRNA specific to each of the target genes was calculated (n=3 in each experiment).
as §2, with “siKIF3A. 8 organoids transfected with siControl, and 7 organoids transfected with siKIF3A from 2 independent chips were analyzed in FIG. 2C.” for “siKIF3A.”

[15] = tested on: ARFIP2; conditions: flow, R-Naproxen 20 μM
Description: as §4
as §2, with “siKIF3A. 8 organoids transfected with siControl, and 7 organoids transfected with siKIF3A from 2 independent chips were analyzed in FIG. 2C.” for “siKIF3A.”

[16] = tested on: COX; conditions: cited from earlier work
[17] = PKHD1−/− organoids under flow, day 16 to 35
[18] = PKHD1−/− organoids under flow, day 16 to 35, T-5224 10 μM, NSC23766 10 μM, 2-MeOE2 5 μM (FIG. 3D, E)
[19] = PKHD1−/− organoids-on-a-chip, day 16 to 35, flow, R-Naproxen 20 μM, R-Ketorolac 1 and 10 μM, T-5224 10 μM (FIG. 4B, C)
[20] = forskolin 20 μM, static (FIG. 1F right)
[21] = ARPKD patient-derived organoids, day 16 to 23 (FIG. 14)
[22] = PKHD1−/− (CRISPR-mutant) organoids, day 16 to 23 (FIG. 5E)

Molecule: O=c1c(O)c(-c2ccc(O)c(O)c2)oc2cc(O)c(O)c(O)c12 [Quercetagetin]
- cyst suppression [1, 17]: did not affect cyst suppression

Molecule: Nc1ncnc2c1nc(Br)n2[C@@H]1O[C@@H]2COP(=O)(O)O[C@H]2[C@H]1O [8-Br-cAMP, 8-Bromoadenosine 3′,5′-cyclic monophosphate]
- cyst formation in CDH1+ distal nephrons [2]: rarely developed cysts
- cyst formation in LTL+ proximal tubules [2]: formed cystic structures

Molecule: COc1cc2c(cc1O)CC[C@@H]1[C@@H]2CC[C@]2(C)[C@@H](O)CC[C@@H]12 [2-MeOE2, 2-Methoxyestradiol]
- CDH1+ tubular enlargement [1, 18]: significant reduction

Molecule: CCN(CC)CCCC(C)Nc1nc(C)cc(Nc2ccc3nc(C)cc(N)c3c2)n1 (stereo not shown) [NSC23766]
- CDH1+ tubular enlargement [1, 18]: significant reduction

Molecule: Z-DEVD-FMK
- cyst suppression [1, 17]: marginal effect

Molecule: O=C(c1ccccc1)c1ccc2n1CC[C@H]2C(=O)O [R-Ketorolac]
- CDH1+ tubular enlargement [1, 19]: significant reductions
- inhibitory effect against RAC1 [3]: inhibitory effect against RAC1

Molecule: COc1ccc2cc([C@H](C)C(=O)O)ccc2c1 [S-Naproxen]
- anti-inflammatory effect [4]: has an anti-inflammatory effect
- cyst formation ([1]; PKHD1−/− organoids cultured under flow, S-Naproxen 20 μM (FIG. 11)): did not inhibit cyst formation
- RAC1 inhibitory activity [3]: lacks RAC1 inhibitory activity

Molecule: C=C[C@@]1(C)CC(=O)[C@]2(O)[C@@]3(C)[C@@H](O)CCC(C)(C)[C@@H]3[C@H](O)[C@H](OC(C)=O)[C@@]2(C)O1 [forskolin]
- cyst formation ([5]; ARPKD patient-derived organoids, forskolin 5, 10, 20 μM (FIGS. 6A-G)): form cysts
- cyst formation in LTL+ proximal tubules ([5]; static organoids derived from ARPKD-patient iPSCs): induced cyst formation
- cyst formation in CDH1+ distal nephrons [2]: rarely developed cysts
- cyst formation in LTL+ proximal tubules [2]: formed cystic structures
- cyst formation ([6]; forskolin 20 μM (FIGS. 8A-H)): form cysts
- diameter in LTL+ CDH− (proximal) tubules [6, 20]: increases
- diameter in LTL− CDH1+ (distal) tubules [6, 20]: increases

Molecule: O=C(O)CCc1cc(C(=O)c2ccc(OC3CCCC3)cc2O)ccc1OCc1ccc2c(O)noc2c1 [T-5224, 3-{5-[4-(cyclopentyloxy)-2-hydroxybenzoyl]-2-[(3-hydroxy-1,2-benzisoxazol-6-yl)methoxy]phenyl}propionic acid]
- FOS inhibition [7]: selective FOS inhibitor; also recorded: specific FOS inhibitor
- CDH1+ tubular enlargement [1, 18]: significant reduction
- CDH1+ tubular enlargement [1, 19]: significant reductions
- PRDM1 expression (qPCR) [8]: reverse expression
- PRDM1 expression (immunohistochemistry), decreased by flow [9]: rescue
- NPTX2 expression (qPCR) [10]: reverse expression
- DUSP1 expression (qPCR) [11]: reverse expression
- safety profile [12]: favorable safety profile; also recorded: proven to be safe in humans

Molecule: COc1ccc2cc([C@@H](C)C(=O)O)ccc2c1 [R-Naproxen]
- ARFIP2 expression (immunohistochemistry), decreased by flow [13]: rescue
- BAIAP2 expression (qPCR) [14, 21]: rescued
- BAIAP2 expression (qPCR) [14, 22]: rescued
- ARFIP2 expression (qPCR) [15, 21]: rescued
- ARFIP2 expression (qPCR) [15, 22]: rescued
- CDH1+ tubular enlargement [1, 19]: significant reductions
- cyst suppression (general statement) ([1]; present data, R-Naproxen): cyst suppression
- COX inhibition [16]: limited COX inhibition
- RAC1 inhibition [3]: enhanced RAC1 inhibition
- inhibitory effect against RAC1 [3]: inhibitory effect against RAC1

B1: rhCXCL16: recombinant human C—X—C Motif Chemokine Ligand 16 (rhCXCL16) for CXCL16 (protein, UniProt Q9H2A7 30-254, looked up)
C-X-C motif chemokine 16: NEGSVTGSCYCGKRISSDSPPSVQFMNRLRKHLRAYHRCLYYTRFQLLSWSVCGGNKDPWVQELMSCLDLKECGHAYSGIVAHQKHLLPTSPPISQASEGASSDIHTPAQMLLSTLQSTQRPTLPVGSLSSDKELTRPNETTIHTAGHSLAAGPEAGENQKQPEKNAGPTARTSATVPVLCLLAIIFILTAALSYVLCKRRRGQSPQSSPDLPVHYIPVAPDSNT
- cyst suppression [1, 17]: did not affect cyst suppression
